# Test results taken from PMC4467461, “Small-molecule activation of SERCA2a SUMOylation for the treatment of heart failure” (Nature Communications, 2015).
# “Also recorded” adds a separate entry of the source.
# How the values were obtained:
# [1] = system: SERCA2a SUMOylation; experiment: Endogenous SERCA2a SUMOylation, SUMO-1 conjugates and Ubc9 in cardiomyocytes (immunoprecipitation / western blot); format: cell-based, Sprague–Dawley rats
# Experimental: Figure 1 N106 increases SERCA2a’s cellular activity and SUMOylation in adult cardiomyocytes. In-vitro characterization of activators of SERCA2a SUMOylation. Cell-based screening of small molecules identified one promising compound. Adult ventricular cardiomyocytes were isolated from Sprague–Dawley rats and treated with small molecules on dose-dependent manner for 24 h. DMSO-treated cardiomyocytes were used as a negative control. (a) Chemical structure of SERCA2a SUMOylation activator. N106, N-(4-methoxybenzo[d]thiazol-2-yl)-5-(4-methoxyphenyl)-1,3,4-oxadiazol-2-amine. (b-g) The effects of N106 compound in cardiomyocyte contractility and calcium transient. The dose-dependent effects of N106 compound presented on peak shortening, the time to maximal departure velocity, the time to maximal return velocity, calcium ratio, decay time constant (τ) and the time to 90% baseline (t90) fluorescence in cardiomyocytes were assessed using a video-based edge-detection system (IonOptix Inc.). n=25 cardiomyocytes from each three of hearts per condition. (h) The effects of N106 compound on the ATPase activity of SERCA2a. The ATPase activity were measured at 25 °C in 50 mM MOPS, 100 mM KCl, 5 mM MgCl2, 1 mM […] at pCa 5.0 by using a coupled enzyme system consisting of pyruvate kinase and lactate dehydrogenase, and monitoring the oxidation of the reduced form of NADH at […]. The enzyme activity was determined by using same set of cardiomyocytes. (i) The effect of N106 compound for the formation of SUMOylated SERCA2a was determined using the same set of cardiomyocytes. Endogenous SERCA2a SUMOylation was detected by immunoprecipitation with anti-SERCA2a and then western blotting with anti-SUMO-1 antibodies. The experiments shown are representative of three independent experiments with similar results. (j) The effect of N106 compound on global SUMOylation was measured by western blot analysis with an anti-SUMO-1 antibody in the same set of cardiomyocytes. The experiments shown are representative of three independent western blottings. Data are represented as mean±s.e.m. (n=3 mice hearts per each condition). Data are represented as mean±s.e.m. *P≤0.05; **P<0.001 (Student’s t-test) from DMSO control.
# Protein extracts (20∼50 μg) were obtained from isolated cardiomyocytes, which was lysed in RIPA buffer (R&D Systems Inc., MN, USA) contained protease inhibitors (Complete mini, Roche Diagnostics, IN, USA) and 20 mM NEM (Sigma-Aldrich). For SERCA2a SUMOylation assays, cardiac protein extracts were immunoprecipitated with a SUMO-1 agarose resin (Santa Cruz Biotechnology Inc., CA, USA) for overnight at 4 °C. The resins were washed with cold lysis buffer three times. The immunocomplexes were then resolved by SDS–PAGE and western blot analysis was performed using a SERCA2a-specific antibody. […]
# treated with small molecules were determined: peak shortening (b) and calcium transient (c). […]
# [2] = system: SERCA2a; experiment: SERCA2a ATPase activity assay (coupled enzyme) in cardiomyocytes; format: cell-based, Sprague–Dawley rats
# Experimental: Figure 1 N106 increases SERCA2a’s cellular activity and SUMOylation in adult cardiomyocytes. In-vitro characterization of activators of SERCA2a SUMOylation. Cell-based screening of small molecules identified one promising compound. Adult ventricular cardiomyocytes were isolated from Sprague–Dawley rats and treated with small molecules on dose-dependent manner for 24 h. DMSO-treated cardiomyocytes were used as a negative control. (a) Chemical structure of SERCA2a SUMOylation activator. N106, N-(4-methoxybenzo[d]thiazol-2-yl)-5-(4-methoxyphenyl)-1,3,4-oxadiazol-2-amine. (b-g) The effects of N106 compound in cardiomyocyte contractility and calcium transient. The dose-dependent effects of N106 compound presented on peak shortening, the time to maximal departure velocity, the time to maximal return velocity, calcium ratio, decay time constant (τ) and the time to 90% baseline (t90) fluorescence in cardiomyocytes were assessed using a video-based edge-detection system (IonOptix Inc.). n=25 cardiomyocytes from each three of hearts per condition. […] The ATPase activity were measured at 25 °C in 50 mM MOPS, 100 mM KCl, 5 mM MgCl2, 1 mM […] at pCa 5.0 by using a coupled enzyme system consisting of pyruvate kinase and lactate dehydrogenase, and monitoring the oxidation of the reduced form of NADH at […]. The enzyme activity was determined by using same set of cardiomyocytes. […]
# [3] = 10 μM, 10∼30 min, sustained at 24 h
structure (smiles),measurement,setting,value
"COc1ccc(-c2nnc(Nc3nc4c(OC)cccc4s3)o2)cc1 [Compound N106, N-(4-methoxybenzo[d]thiazol-2-yl)-5-(4-methoxyphenyl)-1,3,4-oxadiazol-2-amine]",endogenous SERCA2a SUMOylation,"[1]; 10 μM, 24 h",enhancement of endogenous SERCA2a SUMOylation; also recorded: significantly induced
same,"protein levels of E2 conjugation enzyme, Ubc9","[1]; 10 μM, 24 h",without upregulation of Ubc9
same,"SERCA2a SUMOylation, time course",[1]; [3],increased
same,whole SUMO-1 conjugates,"[1]; in response to the concentration of N106, 24 h",increased
same,levels of SERCA2a SUMOylation,"[1]; increasing N106 concentration, 24 h",increased
same,"SERCA2a’s ATPase activity, time course",[2]; [3],increased
same,SERCA2a ATPase activity,"[2]; increasing N106 concentration, 24 h, pCa 5.0",increased
